According to patent publication US10421774B2 (priority 2016, dated 2019):
Like-named read-outs stand apart in the source and are kept apart here.

Tests used:
Format in all cases: cell-based, HIV-1
[1] = tested on: HIV protease R41G site directed mutant virus; assay: Anti-viral sensitivity of site directed mutants, HIV protease R41G; settings: genotype HIV protease R41G, sensitivity relative to wt virus
Text: (§1) Viruses. NLRepRluc virus contains the Renilla luciferase marker in place of the viral nef gene. The proviral plasmid pNLRepRluc was constructed at Bristol-Myers Squibb, starting from a proviral NL4-3 clone (B subtype) that was obtained from the NIH AIDS Research and Reference Reagent Program. The parental recombinant wild type (WT) virus (NLRepRlucP373S) was derived from NLRepRluc and contains the additional substitution of P373 for serine in Gag (within the SP1 spacer), the most common 373 variation in subtype B. Other recombinant viruses (A364V, V370A/ΔT371 and the “T3325 triple” (T332S/V362I+HIV-1 protease R41G)) were generated by site-directed mutagenesis of plasmid pNLRepRlucP373S to introduce those amino acid substitutions in Gag and protease. […] Titers of virus stocks were determined using a luciferase assay (Dual-Luciferase® Reporter Assay System, Promega, Milwaukee, Wis., USA) endpoint.
(§2) Multiple cycle drug susceptibility assay. […] After 4-5 day incubation at 37° C./CO2, virus yields were determined by Renilla luciferase activity (Dual-Luciferase® Reporter Assay System, Promega). The endpoint luminescence was detected on a Wallac Trilux (PerkinElmer).
(§3) Starting from wt virus, the HIV protease R41G substitution was detected in one of three in vitro selections for resistance to the MI compound above along with Gag V362I and Gag T332S. […]

[2] = tested on: T332S/V362I site directed mutant virus; assay: Anti-viral sensitivity of site directed mutants, T332S/V362I; settings: genotype T332S/V362I, sensitivity relative to wt virus
Text: as §1, §2, §3

[3] = tested on: T332S/prR41G site directed mutant virus; assay: Anti-viral sensitivity of site directed mutants, T332S/prR41G; settings: genotype T332S/prR41G, sensitivity relative to wt virus
Text: as §1, §2, §3

[4] = tested on: T332S site directed mutant virus; assay: Anti-viral sensitivity of site directed mutants, T332S; settings: genotype T332S, sensitivity relative to wt virus
Text: as §1, §2, §3

[5] = tested on: V362I/prR41G site directed mutant virus; assay: Anti-viral sensitivity of site directed mutants, V362I/prR41G; settings: genotype V362I/prR41G, sensitivity relative to wt virus
Text: as §1, §2, §3

[6] = tested on: V362I site directed mutant virus; assay: Anti-viral sensitivity of site directed mutants, V362I; settings: genotype V362I, sensitivity relative to wt virus
Text: as §1, §2, §3

[7] = tested on: T332S/V362I/Pr R41G virus; assay: microbe, parasite or virus in culture; settings: for EC50: Human immunodeficiency virus 1, MT2, read-out: T332S/V362I/pr41G EC50; for EC90: Human immunodeficiency virus 1, read-out: T332S/V362I/prR41G EC90
In short: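 Multiple-cycle susceptibility: MT-2 cells, 10,000 per well, exposed to 3-fold compound dilutions at 1% DMSO after infection with luciferase-normalized inoculum. Virus: NL4-3-derived Renilla reporter (Gag P373S) with Gag T332S/V362I and protease R41G. Readout Renilla luciferase after 4–5 days, 37 °C.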

[8] = tested on: NLRepRlucP373S recombinant wild type (WT) virus; assay: microbe, parasite or virus in culture
In short: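 Multiple-cycle assay: luciferase-normalized NL4-3-derived NLRepRlucP373S (Renilla luciferase in place of nef) infects MT-2 cells, 10,000 cells/well, with 3-fold compound dilutions at 1% DMSO, 4-5 days, 37 °C. EC50 and EC90 fitted by median effect equation against Renilla luminescence, with residual signal under 3 μM NFV as background.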

gag V370A/ΔT371 virus = assay: microbe, parasite or virus in culture; settings: for EC50: Human immunodeficiency virus 1, MT2, read-out: V370A/ΔT371 EC50; for EC90: Human immunodeficiency virus 1, read-out: V370A/ΔT371 EC90
In short: (§4)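 Virus yield quantified by Renilla luciferase after 4–5 day culture at 37°C of MT-2 cells (10,000/well) with 3-fold serially diluted compound at 1% final DMSO. Reporter viruses were NL4-3 P373S derivatives bearing Gag A364V or V370A/ΔT371, inputs matched on luciferase endpoint.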

[9] = tested on: A364V site directed mutant virus; assay: microbe, parasite or virus in culture; settings: for EC50: Human immunodeficiency virus 1, MT2, read-out: A364V EC50; for EC90: Human immunodeficiency virus 1, read-out: A364V EC90
In short: as §4

[10] = Human immunodeficiency virus 1, MT2, read-out: WT EC50
[11] = Human immunodeficiency virus 1, read-out: WT EC50

SMILES | EC50 [8, 10] [nM] | EC50 (gag V370A/ΔT371 virus) [nM] | EC50 [9] [nM] | EC50 [7] [nM] | other results
C=C(C)[C@@H]1CC[C@]2(C(=O)O)CC[C@]3(C)[C@H](CC[C@@H]4[C@@]5(C)CC[C@H](OC(=O)CC(C)(C)C(=O)O)C(C)(C)[C@@H]5CC[C@]43C)[C@@H]12 [BVM, 3β-(3-carboxy-3-methyl-butanoyloxy) lup-20(29)-en-28-oic acid] |  |  |  |  | Fold wt [1]: 1.9; Fold wt [2]: 3.1; Fold wt [3]: 4.2; Fold wt [4]: 23; Fold wt [5]: 3.9; Fold wt [6]: 0.6; Fold wt ([7]; genotype T332S/V362I/Pr41G, sensitivity relative to wt virus): 10
C=C(C)[C@@H]1CC[C@]2(NCCN3CCS(=O)(=O)CC3)CC[C@]3(C)[C@H](CC[C@@H]4[C@@]5(C)CC=C(C6=CCC(CCOc7cnccn7)(C(=O)O)CC6)C(C)(C)[C@@H]5CC[C@]43C)[C@@H]12 (stereo partly drawn) [Example A31, 4-((1R,3aS,5aR,5bR,7aR,11aS,11bR,13aR,13bR)-3a-((2-(1,1-dioxidothiomorpholino)ethyl)amino)-5a,5b,8,8,11a-pentamethyl-1-(prop-1-en-2-yl)-2,3,3a,4,5,5a,5b,6,7,7a,8,11,11a,11b,12,13,13a,13b-octadecahydro-1H-cyclopenta[a]chrysen-9-yl)-1-(2-(pyrazin-2-yloxy)ethyl)cyclohex-3-ene-1-carboxylic acid] | 3 | > 50 | 3000 | > 50 | 
C=C(C)[C@@H]1CC[C@]2(NCCN3CCS(=O)(=O)CC3)CC[C@]3(C)[C@H](CC[C@@H]4[C@@]5(C)CC=C(C6=CCC(CCOc7cc(OC)ccn7)(C(=O)O)CC6)C(C)(C)[C@@H]5CC[C@]43C)[C@@H]12 (stereo partly drawn) [Example A32, 4-((1R,3aS,5aR,5bR,7aR,11aS,11bR,13aR,13bR)-3a-((2-(1,1-dioxidothiomorpholino)ethyl)amino)-5a,5b,8,8,11a-pentamethyl-1-(prop-1-en-2-yl)-2,3,3a,4,5,5a,5b,6,7,7a,8,11,11a,11b,12,13,13a,13b-octadecahydro-1H-cyclopenta[a]chrysen-9-yl)-1-(2-((4-methoxypyridin-2-yl)oxy)ethyl)cyclohex-3-ene-1-carboxylic acid] | 6 | > 50 | > 50 | 419 | 
C=C(C)[C@@H]1CC[C@]2(NCCN3CCS(=O)(=O)CC3)CC[C@]3(C)[C@H](CC[C@@H]4[C@@]5(C)CC=C(C6=CCC(CCOc7cc(Br)ccn7)(C(=O)O)CC6)C(C)(C)[C@@H]5CC[C@]43C)[C@@H]12 (stereo partly drawn) [Example A33, 1-(2-((4-bromopyridin-2-yl)oxy)ethyl)-4-((1R,3aS,5aR,5bR,7aR,11aS,11bR,13aR,13bR)-3a-((2-(1,1-dioxidothiomorpholino)ethyl)amino)-5a,5b,8,8,11a-pentamethyl-1-(prop-1-en-2-yl)-2,3,3a,4,5,5a,5b,6,7,7a,8,11,11a,11b,12,13,13a,13b-octadecahydro-1H-cyclopenta[a]chrysen-9-yl)cyclohex-3-ene-1-carboxylic acid] | 6 | > 50 | 1790 | 419 | 
C=C(C)[C@@H]1CC[C@]2(NCCN3CCS(=O)(=O)CC3)CC[C@]3(C)[C@H](CC[C@@H]4[C@@]5(C)CC=C(C6=CCC(CCOc7cc(Cl)ccn7)(C(=O)O)CC6)C(C)(C)[C@@H]5CC[C@]43C)[C@@H]12 (stereo partly drawn) [Example A34, 1-(2-((4-chloropyridin-2-yl)oxy)ethyl)-4-((1R,3aS,5aR,5bR,7aR,11aS,11bR,13aR,13bR)-3a-((2-(1,1-dioxidothiomorpholino)ethyl)amino)-5a,5b,8,8,11a-pentamethyl-1-(prop-1-en-2-yl)-2,3,3a,4,5,5a,5b,6,7,7a,8,11,11a,11b,12,13,13a,13b-octadecahydro-1H-cyclopenta[a]chrysen-9-yl)cyclohex-3-ene-1-carboxylic acid] | 2 | > 50 | 64 | 96 | 
C=C(C)[C@@H]1CC[C@]2(NCCN3CCS(=O)(=O)CC3)CC[C@]3(C)[C@H](CC[C@@H]4[C@@]5(C)CC=C(C6=CCC(CCOc7ccnc(Cl)c7)(C(=O)O)CC6)C(C)(C)[C@@H]5CC[C@]43C)[C@@H]12 (stereo partly drawn) [Example A35, 1-(2-((2-chloropyridin-4-yl)oxy)ethyl)-4-((1R,3aS,5aR,5bR,7aR,11aS,11bR,13aR,13bR)-3a-((2-(1,1-dioxidothiomorpholino)ethyl)amino)-5a,5b,8,8,11a-pentamethyl-1-(prop-1-en-2-yl)-2,3,3a,4,5,5a,5b,6,7,7a,8,11,11a,11b,12,13,13a,13b-octadecahydro-1H-cyclopenta[a]chrysen-9-yl)cyclohex-3-ene-1-carboxylic acid] | < 50 | 3000 | 233 | > 50 | 
C=C(C)[C@@H]1CC[C@]2(NCCN3CCS(=O)(=O)CC3)CC[C@]3(C)[C@H](CC[C@@H]4[C@@]5(C)CC=C(C6=CCC(COCc7ccccc7C#N)(C(=O)O)CC6)C(C)(C)[C@@H]5CC[C@]43C)[C@@H]12 (some centres unmarked) [reference compound] |  |  |  |  | EC50 [8, 11]: 3 nM; EC90 (gag V370A/ΔT371 virus): 2420 nM; EC90 [9]: 228 nM; EC90 [7]: 2420 nM
C=C(C)[C@@H]1CC[C@]2(NCCN3CCS(=O)(=O)CC3)CC[C@]3(C)[C@H](CC[C@@H]4[C@@]5(C)CC=C(C6=CCC(COCc7ncccc7C#N)(C(=O)O)CC6)C(C)(C)[C@@H]5CC[C@]43C)[C@@H]12 (some centres unmarked) [reference compound] |  |  |  |  | EC50 [8, 11]: 2 nM; EC90 (gag V370A/ΔT371 virus): 1460 nM; EC90 [9]: 340 nM; EC90 [7]: 1460 nM
